Columns and labels:
[1] = test system: white fly (Bemisia tabaci); test: Bemisia tabaci-Test (BEMITA); assay type: in vivo; conditions: 168 h, spray on cotton plants, after 7 days
Description: Bemisia tabaci-Test (BEMITA)
Cotton plants (Gossypium hirsutum) infested with eggs, larvae and pupae of the white fly (Bemisia tabaci) are sprayed with a test solution containing the desired concentration of the active ingredient.

Phytophthora infestans = assay type: in vivo; conditions: 500 ppm, tomato, preventive, 7 days after the inoculation
[2] = test system: braun planthopper (Nilaparvata lugens); test: Nilaparvata lugens-Test (NILALU hydroponic application); assay type: in vivo; conditions: after the specified period of time
Description: Nilaparvata lugens-Test; (NILALU Hydroponic Application)
(§1) • Solvent: 78.0 parts by weight of acetone • 1.5 parts by weight of dimethylformamide • Emulsifier: 0.5 parts by weight of alkylaryl polyglycolether

[3] = test system: fall armyworm larvae (Spodoptera frugiperda); test: Spodoptera frugiperda-Test (SPODFR spray application); assay type: in vivo; conditions: 168 h, spray on maize leaf sections, after 7 days
Description: Spodoptera frugiperda-Test (SPODFR Spray Application)
(§2) • Solvent: 78.0 parts by weight acetone • 1.5 parts by weight dimethylformamide • Emulsifier: 0.5 parts by weight alkylarylpolyglcolether
Maize (Zea mais) leaf sections are sprayed with a preparation of the active ingredient of the desired concentration. Once dry, the leaf sections are infested with fall armyworm larvae (Spodoptera frugiperda). […] 100% means that all caterpillars have been killed and 0% means that none of the caterpillars have been killed.

[4] = test system: am. serpentine leaf miner (Liriomyza trifolii); test: Liriomyza trifolii-Test (LIRITR spray application); assay type: in vivo; conditions: 168 h, spray on French bean leaf-disks, after 7 days
Description: Liriomyza trifolii-Test (LIRITR Spray Application)
as §1
French bean (Phaseolus vulgaris) leaf-disks infested with larvaes of the am. serpentine leaf miner (Liriomyza trifolii) are sprayed with a test solution containing the desired concentration of the active ingredient.

[5] = test system: larvae of the diamondback moth (Plutella xylostella/sensible strain); test: Plutella xylostella-Test (PLUTMA); assay type: in vivo; conditions: in Brassica oleracea, 168 h, read-out: mortality in %
Description: Plutella xylostella-Test (PLUTMA)

[6] = test system: mustard beetle larvae (Phaedon cochleariae); test: Phaedon cochleariae larvae-Test; conditions: in Brassica oleracea, 168 h, read-out: mortality in %
[7] = test system: cotton aphid (Aphis gossypii); test: Aphis gossypii Test (APHIGO); assay type: in vivo; conditions: 144 h, spray on cotton leaves, after 6 days
Method: Aphis gossypii Test (APHIGO)
(§3) After 6 days mortality in % is determined.

[8] = test system: green peach aphid (Myzus persicae); test: Myzus persicae-Test (MYZUPE); assay type: in vivo; conditions: 144 h, spray on cabbage leaves, after 6 days
Method: Myzus persicae-Test (MYZUPE)
as §3

[9] = test system: two spotted spidermite (Tetranychus urticae); test: Tetranychus urticae-Test, OP-resistant (TETRUR spray application); assay type: in vivo; conditions: 144 h, spray on French beans, after 6 days
Description: Tetranychus urticae-Test; (OP-Resistant (TETRUR Spray Application)
as §2

[10] = test system: green peach aphid (Myzus persicae); test: Myzus persicae-Test (MYZUPE spray application); assay type: in vivo; conditions: 144 h, spray on Chinese cabbage leaf-disks, after 6 days
Description: Myzus persicae-Test; (MYZUPE Spray Application)
as §2
Chinese cabbage (Brassica pekinesis) leaf-disks infected with all instars of the green peach aphid (Myzus persicae), are sprayed with a preparation of the active ingredient at the desired concentration.

[11] = test system: mustard beetle larvae (Phaedon cochleariae); test: Phaedon cochleariae-Test (PHAECO spray application); assay type: in vivo; conditions: 168 h, spray on Chinese cabbage leaf-disks, after 7 days
Description: Phaedon cochleariae-Test; (PHAECO Spray Application)
as §1
Chinese cabbage (Brassica pekinesis) leaf-disks are sprayed with a preparation of the active ingredient of the desired concentration.

[12] = test system: two-spotted spider mite (Tetranychus urticae); test: Tetranychus-Test (OP-resistant); assay type: in vivo; conditions: read-out: mortality in %
Description: Tetranychus-Test (OP-Resistant)

Row | Structure (SMILES) | mortality at 20 ppm [1] [%] | mortality at 500 g/ha [2] [%] | mortality at 500 g/ha [3] [%] | mortality at 500 g/ha [4] [%] | mortality at 500 g/ha [9] [%] | mortality at 500 g/ha [10] [%] | mortality at 500 g/ha [11] [%] | further results
1 | Cc1ccc(C)c(C2=C(OC(=O)N(C)CCC#N)CC3(CCOCC3)CC2=O)c1 | – | – | – | – | – | – | – | melting point: 108 to 114 °C
2 | Cc1ccc(-c2ccc(Cl)cc2)cc1C1=C(O)CC2(CCOCC2)CC1=O [Compound T3] | ≥ 80 | ≥ 80 | ≥ 80 | ≥ 80 | ≥ 80 | – | – | Efficacy in % (Phytophthora infestans): 75%; mortality at 100 ppm [5]: ≥ 80%; mortality at 100 ppm [6]: ≥ 80%; mortality at 100 ppm [7]: ≥ 80%; mortality at 100 ppm [8]: ≥ 80%
3 | CCc1cc(C)cc(CC)c1C1=C(O)CC2(CCOCC2)CC1=O [Compound T22] | – | – | – | – | – | ≥ 80 | – | –
4 | Cc1ccc(-c2ccc(F)cc2)cc1C1=C(O)CC2(CCOCC2)CC1=O [Compound T74] | ≥ 80 | ≥ 80 | ≥ 80 | ≥ 80 | – | – | ≥ 80 | mortality at 20 ppm [12]: ≥ 80%
5 | O=C1CC2(CCOCC2)CC(O)=C1c1cc(-c2ccc(F)cc2)ccc1Cl [Compound T75] | ≥ 80 | – | – | ≥ 80 | ≥ 80 | ≥ 80 | – | –
6 | Cc1ccc(-c2ccc(F)cc2)c(C)c1C1=C(O)CC2(CCOCC2)CC1=O [Compound T76] | – | – | ≥ 80 | – | ≥ 80 | ≥ 80 | ≥ 80 | –

— patent US8487118B2, “Cyclic diones and their use as insecticides, acaricides and/or fungicides” (Bayer CropScience AG, priority 2009, dated 2013)
